Measurements reported in US12642780B2, “Methods and compositions to treat and prevent viral infections and acute respiratory distress syndrome” (priority 2020, dated 2026).
Like-named read-outs stand apart in the source and are kept apart here.

Tests used:
in vivo = settings: male, C57BL/6, mouse, ip, 50 mg/kg
Experimental: Pooled mice plasma (CD-1 (ICR) MSE00PLK2, BioIVT) was selected as blank matrix for standards and quality control samples. Sample preparation procedure was adopted from literatures with minor modifications. […] The samples mix were vortexed for 2 minutes then sonicated for 1 min and centrifuged at 6100 g for 10 min. Supernatants were transferred into a new set 96-well plate, and 10 μL were injected for LC-MS/MS analysis. […] The solution was then serially diluted with 50% methanol-water to obtain standard working solutions over a concentration range of 10-2000 ng/ml. The quality control (QC) samples were prepared in three concentrations: 10, 100, and 500 ng/ml.
LC-MS/MS system was performed using an Agilent 1290 Infinity HPLC and HiP ALS (Autosampler) coupled with AB Sciex 6500 Q-Trap mass spectrometer. All data were acquired using Analyst (AB SCIEX v1.7.1). […] The mobile phase A was 20 mM ammonium acetate buffer in water and 100% acetonitrile as mobile phase B. A total 7 min gradient run with a flow rate of 0.8 ml/min was implemented. […] The mass spectrometer was operated in a positive mode using scheduled multiple reaction morning (sMRM).

BMDM [1] = settings: for recruitment of DRP1 to mitochondria / recruitment of p62 to mitochondria: metformin 0.5 mM
BMDM [2] = experiment: Mitochondrial function in BMDM (TMRM, MitoSOX, cellular ATP); type: cell-based, mouse
mtDNA = mtDNA synthesis and cytosolic Ox-mtDNA in BMDM; type: cell-based, mouse
Experimental: To image mtDNA synthesis, BMDM were stimulated with LPS ([…]) for 4 hrs in the presence of 10 μM EdU. Cells were then washed twice with sterile PBS and fixed in 4% PFA for 15 min followed by permeabilization with 0.02% Triton X-100 for 10 min. EdU staining was performed using a Click-iT EdU Microplate Assay Kit (Thermo Fisher Scientific). In brief, BMDMs were postfixed in EdU fixative for 5 min, and equal volumes of the EdU reaction cocktail, which was prepared immediately before use, were added to each chamber and left overnight. Primary antibody against the mitochondrial marker Atp5b was included in the EdU reaction cocktail. The next day, the BMDM were washed three times with PBS followed by incubation with secondary Alexa antibodies from Life Technologies or Jackson Immuno Research Laboratories. DAPI was used for nuclear counterstaining.
Total DNA was isolated using Allprep DNA/RNA Mini Kit (catalogue 80204, Qiagen) according to manufacturer's instructions. mtDNA was quantified by qPCR using primers specific for the mitochondrial D-loop region, cytochrome c oxidase (COX) or a specific region of mtDNA that is not inserted into nuclear DNA (non-NUMT) (Zhong et al., 2018). Nuclear DNA encoding Teri, 18S ribosomal RNA and B2m was used for normalization.
Cellular fractionation was performed using Mitochondrial Isolation kit (89874, ThermoScientific) according to manufacturer's instructions. Cytosolic mtDNA was analyzed as described (Nakahira et al., 2011). For the measurement of Ox-mtDNA, mtDNA was first purified using Allprep DNA/RNA mini kit (Qiagen) from the cytosolic fraction of BMDM as described above. The 8-OH-dG content of the mtDNA was then quantified using an 8-OHdG quantification kit (ab201734), per manufacturer's instructions.

[3] = test system: alum induced peritonitis model; experiment: Alum-induced peritonitis; type: in vivo, mouse
[4] = BMDM, LPS 4 hrs, metformin 0.5 mM 16 hrs
[5] = LPS-primed BMDM, metformin 0.5 mM 16 h

CN(C)C(=N)NC(=N)N [metformin, N,N-dimethylbiguanide]
concentration at 1 hr (in vivo): 440 ± 389 ng/mL
expression of CMPK2 (BMDM [1]; [4]): no effect
POLγ expression (BMDM [1]; BMDM, metformin): no effect
AMPK phosphorylation (BMDM [1]; BMDM, metformin 0.5 mM 16 h): increased
p38 or JNK MAP kinase activation (BMDM [1]; BMDM, metformin 0.5 mM 16 hrs, LPS 30 min): blunted
nuclear translocation of NFAT family members and c/EBPb (BMDM [1]; BMDM, metformin 0.5 mM 16 hrs, LPS 4 hrs): decreased
LPS-induced p65/RelA nuclear translocation or phosphorylation (BMDM [1]; BMDM, metformin 0.5 mM overnight, LPS): did not interfere
STAT1 or STAT3 phosphorylation (BMDM [1]; BMDM, metformin pretreatment, LPS): did not inhibit
recruitment of DRP1 to mitochondria (BMDM [1]; LPS primed cells): enhancing it
recruitment of DRP1 to mitochondria (BMDM [1]; LPS+ATP challenged macrophages): not affecting it
recruitment of p62 to mitochondria (BMDM [1]; LPS-primed cells not ATP exposed): enhanced
recruitment of p62 to mitochondria (BMDM [1]; after LPS+ATP stimulation): did not affect
ATP or nigericin induced decrease of mitochondrial membrane potential and increase of mtROS (BMDM [2]; [5]): blunted both responses
drop in ATP concentration (BMDM [2]; LPS-primed versus non-stimulated macrophages): larger drop
mitochondrial membrane potential (BMDM [2]; non-stimulated macrophages, metformin alone): decreased
inhibition of LPS-induced mtDNA synthesis by EdU-labelling (mtDNA; [4]): confirmed
LPS-stimulated mtDNA synthesis (mtDNA; [5]): strongly inhibited
generation of cytoplasmic Ox-mtDNA (mtDNA; LPS-primed macrophages challenged with ATP or nigericin, metformin): blocked generation
effect of AMPKα1 silencing on LPS-stimulated mtDNA synthesis and its inhibition by metformin (mtDNA; shPrkaa1 BMDM): no effect
peritoneal IL-1β and IL-6 production ([3]; metformin 0, 10, 50 mg/kg 30 min prior to i.p. alum): dose-dependent decline
peritoneal TNF production ([3]; metformin 10 or 50 mg/kg 30 min prior to i.p. alum): no effect
